Assay results taken from patent publication US20090233950A1, “QUINAZOLINE DERIVATIVES” (priority 2006, published 2009).

Key:
[1] = molecular target: T1, PDGFRβ (Homo sapiens, UniProt P09619); assay: In vitro phospho-Tyr751 PDGFRβ ELISA assay (Test (b)), MG63 osteosarcoma cells stimulated with PDGFBB; format: cell-based; conditions: read-out: IC50 versus phospho-Tyr751 formation in PDGFRβ
T1 construct: endogenous in cells; host or cells: MG63 osteosarcoma cells (ATCC)
Experimental: (b) In Vitro phospho-Tyr751 PDGFRβ ELISA Assay
This assay uses a conventional ELISA method to determine the ability of test compounds to inhibit phosphorylation of tyrosine in PDGFRβ.
An MG63 osteosarcoma cell line [American Type Culture Collection (ATCC) CCL 1427] was routinely maintained at 37° C. with 7.5% CO2 in Dulbecco's modified Eagle's growth medium (DMEM; Sigma-Aldrich; Catalogue No. D6546) containing 10% foetal calf serum (FCS; Sigma-Aldrich; Catalogue No. F7524) and 2 mM L-glutamine (Invitrogen Ltd., Paisley, UK; Catalogue No. 25030-024).
For the assay, the cells were detached from the culture flask using a trypsin/ethylenediaminetetraacetic acid (EDTA) mixture (Invitrogen Ltd.; Catalogue No. 15400-054) and resuspended in a test medium comprising DMEM without phenol red (Sigma-Aldrich; Catalogue No. D5921) containing 1% charcoal-stripped foetal calf serum (FCS) (Sigma-Aldrich; Catalogue No. F7524, stripped by incubation with dextran-coated activated charcoal at 55° C. for 30 minutes with continuous stirring followed by removal of the charcoal by centrifugation and filter sterilisation) and 2 mM L-glutamine (Invitrogen Ltd., Catalogue No. 25030-024) to give 6×10^4 cells per ml. Aliquots (100 μl) were seeded into each of the wells of columns […] (excluding column 1) and rows B-G (excluding rows A and H) of a clear 96 well tissue culture plate (Corning Life Sciences, Koolhovenlaan, The Netherlands; Catalogue No. 3595) to give a density of about 6000 cells per well. Aliquots (100 μl) of culture media were placed in the outer wells to minimise edge effects. The cells were incubated overnight at 37° C. with 7.5% CO2 to allow the cells to adhere to the wells.
Test compounds were prepared as 10 mM stock solutions in DMSO and serially diluted as required with DMSO to give a range of concentrations. Aliquots (3 μl) of each compound concentration were added to test medium (300 μl) to create a second dilution range. Aliquots (16 μl) of each resultant compound concentration were added to the cells in each well. “Maximum” control cells received a dilution of DMSO plus test medium only. “Minimum” control cells received a reference PDGFR inhibitor (16 μl). The cells were incubated for 90 minutes at 37° C. with 7.5% CO2.
The resultant cells were stimulated with PDGFBB using the following procedure. A lyophilised powder of PDGFBB, (Sigma-Aldrich; Catalogue No. P4306) was mixed with sterile water to provide a stock solution of 10 μg/ml of PDGFBB. A dilution of this stock solution into test medium provided a 182 ng/ml PDGFBB solution. Aliquots thereof (44 μl) were added to compound treated cells and to the “Maximum” control cells. The “Minimum” control cells received medium only. The cells were incubated at 37° C. with 7.5% CO2 for 5 minutes. The solution from the wells was removed and the cells were lysed by the addition of 120 μl/well of RIPA buffer comprising 60 mM tris(hydroxymethyl)aminomethane hydrochloride (Tris-HCl), 150 mM sodium chloride, 1 mM EDTA, 1% v/v Igepal CA-630, 0.25% sodium deoxycholate, 1% v/v phosphatase inhibitor cocktail 1 P2850, 1% phosphatase inhibitor cocktail 2 P5726 and 0.5% v/v protease inhibitor cocktail P8340 (all chemicals and inhibitor cocktails were obtainable from the Sigma-Aldrich Company Ltd.). The resultant tissue culture plates were shaken for 5 minutes at ambient temperature to ensure full lysis and then frozen at −20° C. until required. […]

[2] = molecular target: T2, KDR (VEGFR2) (Homo sapiens, UniProt P35968); assay: In vitro phospho-KDR ELISA assay (Test (c)), HUVECs stimulated with VEGF; format: cell-based; conditions: read-out: IC50 versus phospho-tyrosine formation in KDR
T2 construct: phosphorylation of KDR expressed in human umbilical vein endothelial cells (HUVECs); host or cells: HUVECs
T2 sequence (P35968 20-1356): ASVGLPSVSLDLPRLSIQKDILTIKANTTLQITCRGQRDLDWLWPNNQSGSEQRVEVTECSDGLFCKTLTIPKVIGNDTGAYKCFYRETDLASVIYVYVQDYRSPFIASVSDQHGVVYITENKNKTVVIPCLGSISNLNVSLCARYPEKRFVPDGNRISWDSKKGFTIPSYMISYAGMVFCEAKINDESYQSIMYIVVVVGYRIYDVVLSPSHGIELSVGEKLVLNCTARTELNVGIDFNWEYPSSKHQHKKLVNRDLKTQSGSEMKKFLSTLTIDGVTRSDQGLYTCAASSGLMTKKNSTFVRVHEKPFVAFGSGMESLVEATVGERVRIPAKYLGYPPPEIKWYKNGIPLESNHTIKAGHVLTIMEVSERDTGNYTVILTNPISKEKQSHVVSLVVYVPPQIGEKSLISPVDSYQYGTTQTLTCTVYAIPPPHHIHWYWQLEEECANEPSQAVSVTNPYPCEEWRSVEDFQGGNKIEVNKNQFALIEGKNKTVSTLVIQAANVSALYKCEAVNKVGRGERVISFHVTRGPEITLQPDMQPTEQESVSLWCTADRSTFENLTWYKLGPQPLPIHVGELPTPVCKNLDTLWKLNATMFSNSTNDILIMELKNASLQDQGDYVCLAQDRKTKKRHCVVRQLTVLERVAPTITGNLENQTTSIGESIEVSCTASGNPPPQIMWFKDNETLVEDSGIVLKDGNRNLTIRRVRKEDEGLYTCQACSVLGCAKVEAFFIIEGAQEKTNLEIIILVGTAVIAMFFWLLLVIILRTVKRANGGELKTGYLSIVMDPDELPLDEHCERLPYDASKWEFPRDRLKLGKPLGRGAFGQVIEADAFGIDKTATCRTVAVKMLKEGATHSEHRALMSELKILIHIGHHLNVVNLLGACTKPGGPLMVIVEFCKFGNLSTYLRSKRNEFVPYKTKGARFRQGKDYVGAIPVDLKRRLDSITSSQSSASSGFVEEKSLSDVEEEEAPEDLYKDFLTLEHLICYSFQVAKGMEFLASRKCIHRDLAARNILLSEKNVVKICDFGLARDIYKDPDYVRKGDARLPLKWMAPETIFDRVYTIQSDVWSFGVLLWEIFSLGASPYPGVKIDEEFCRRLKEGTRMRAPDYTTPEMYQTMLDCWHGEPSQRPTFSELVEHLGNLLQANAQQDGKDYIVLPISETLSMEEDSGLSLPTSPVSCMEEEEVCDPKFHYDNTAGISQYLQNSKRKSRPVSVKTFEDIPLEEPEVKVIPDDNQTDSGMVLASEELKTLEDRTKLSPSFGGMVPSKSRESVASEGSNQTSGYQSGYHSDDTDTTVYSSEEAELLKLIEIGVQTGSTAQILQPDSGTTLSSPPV
Experimental: (c) In Vitro phospho-KDR ELISA Assay
This assay uses a conventional ELISA method to determine the ability of test compounds to inhibit phosphorylation of tyrosine in KDR (VEGFR2).
Human umbilical vein endothelial cells (HUVECs; PromoCell) were routinely incubated at 37° C. with 7.5% CO2 in ‘growth medium’ comprising MCDB 131 (Gibco Catalogue No. 10372-019; 500 ml) containing L-glutamine (Sigma Catalogue No. G3126; 0.848 g), 1% Penicillin Streptomycin (Gibco Catalogue No. 15140-122) and Fetal Bovine Serum (PAA Laboratories Catalogue No. A15-043; 50 ml).
For the assay, the cells were detached from the culture flask using a trypsin/ethylenediaminetetraacetic acid (EDTA) mixture (Invitrogen Ltd.; Catalogue No. 15400-054) and resuspended in ‘test medium’ comprising MCDB 131 (500 ml) containing L-glutamine (0.848 g), 1% Penicillin Streptomycin and Fetal Bovine Serum (10 ml). Aliquots (1 ml) were seeded into each well of a 24 well tissue culture plate (Corning Life Sciences; Catalogue No. 3527) to give a density of approximately 3.5×10^4 cells per well. The cells were incubated overnight at 37° C. with 7.5% CO2 to allow adherence to the well surface. The following morning the assay medium was decanted and an aliquot (0.5 ml) of ‘serum free medium’ comprising MCDB 131 (500 ml) containing L-glutamine (0.848 g) and 1% Penicillin Streptomycin was added to each well. The plates were incubated at 37° C. for 2.5 hours.
Test compounds were prepared as 10 mM stock solutions in DMSO and serially diluted with DMSO as required. Aliquots (3 μl) of each concentration of test compound were diluted with ‘serum free medium’ (300 μl). Aliquots (50 μl) of each resultant compound concentration were added to the cells in each well. “Maximum” control cells received only a dilution of DMSO whereas the “minimum” controls received a reference KDR inhibitor to give a final concentration of 1 μM. The cells were incubated for 90 minutes at 37° C. with 7.5% CO2.
The resultant cells were stimulated with VEGF using the following procedure. A lyophilised powder of VEGF (Sigma-Aldrich; Catalogue No. V7259) was mixed with PBS containing 0.1% filter-sterilised BSA (0.1% BSA/PBS) to provide a stock solution of 10 μg/ml of VEGF. A dilution of this stock solution into ‘serum free medium’ provided a 1000 ng/ml VEGF solution. Aliquots thereof (50 μl) were added to all wells. The cells were incubated at 37° C. with 7.5% CO2 for 5 minutes. The solution from the wells was removed and the cells were lysed by the addition of 100 μl/well of RIPA buffer comprising 60 mM Tris-HCl, 150 mM sodium chloride, 1 mM EDTA, 1% v/v Igepal CA-630, 0.25% sodium deoxycholate, 1% v/v phosphatase inhibitor cocktail 1 P2850, 1% phosphatase inhibitor cocktail 2 P5726 and 0.5% v/v protease inhibitor cocktail P8340. […]

T1 sequence (P09619 33-1106): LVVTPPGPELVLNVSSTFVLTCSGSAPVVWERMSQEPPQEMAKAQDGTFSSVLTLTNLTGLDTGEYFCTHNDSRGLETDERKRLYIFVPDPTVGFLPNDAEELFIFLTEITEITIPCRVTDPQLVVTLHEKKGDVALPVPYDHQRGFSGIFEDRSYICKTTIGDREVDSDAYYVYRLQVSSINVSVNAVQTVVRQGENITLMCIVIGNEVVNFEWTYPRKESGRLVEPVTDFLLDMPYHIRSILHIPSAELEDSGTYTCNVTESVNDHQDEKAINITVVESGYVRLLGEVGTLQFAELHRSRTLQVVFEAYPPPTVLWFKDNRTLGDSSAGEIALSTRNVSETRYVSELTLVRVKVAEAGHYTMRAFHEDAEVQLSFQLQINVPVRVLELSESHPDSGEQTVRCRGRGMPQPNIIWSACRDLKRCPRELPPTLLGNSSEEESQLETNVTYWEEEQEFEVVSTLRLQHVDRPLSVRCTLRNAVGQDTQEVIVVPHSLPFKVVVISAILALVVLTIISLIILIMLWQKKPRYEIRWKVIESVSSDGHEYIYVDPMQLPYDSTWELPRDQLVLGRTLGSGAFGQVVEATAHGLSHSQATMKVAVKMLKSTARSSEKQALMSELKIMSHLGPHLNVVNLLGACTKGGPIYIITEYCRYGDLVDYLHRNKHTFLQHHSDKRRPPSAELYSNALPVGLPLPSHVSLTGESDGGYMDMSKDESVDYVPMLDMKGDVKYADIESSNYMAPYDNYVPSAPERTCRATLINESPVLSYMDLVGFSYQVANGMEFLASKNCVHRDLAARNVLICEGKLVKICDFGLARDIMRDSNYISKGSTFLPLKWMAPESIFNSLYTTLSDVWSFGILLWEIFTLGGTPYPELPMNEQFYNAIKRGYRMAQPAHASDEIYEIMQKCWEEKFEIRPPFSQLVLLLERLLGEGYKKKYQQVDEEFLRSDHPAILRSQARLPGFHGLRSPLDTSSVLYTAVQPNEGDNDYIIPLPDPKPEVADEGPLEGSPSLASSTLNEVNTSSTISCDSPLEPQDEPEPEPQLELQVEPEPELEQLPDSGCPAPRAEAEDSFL

| Structure (SMILES) | IC50 [1] [µM] | IC50 [2] [µM] |
| --- | --- | --- |
| COc1cc2ncnc(Oc3ccc(CC(=O)Nc4nc(C)c(C)s4)nc3)c2cc1OC [Example 1, N-(4,5-dimethylthiazol-2-yl)-2-[5-(6,7-dimethoxyquinazolin-4-yloxy)pyridin-2-yl]acetamide] | ~0.005 | ~0.002 |
| CCn1cc(NC(=O)Cc2ncc(Oc3ncnc4cc(OC)c(OC)cc34)cc2OC)cn1 [Example 7, N-(1-ethyl-1H-pyrazol-4-yl)-2-[5-(6,7-dimethoxyquinazolin-4-yloxy)-3-methoxypyridin-2-yl]acetamide] | ~0.01 | > 3 |
| COc1cc2ncnc(Oc3cnc(CC(=O)Nc4cnn(C(C)C)c4)c(OC)c3)c2cc1OC [Example 8, N-(1-isopropyl-1H-pyrazol-4-yl)-2-[5-(6,7-dimethoxyquinazolin-4-yloxy)-3-methoxypyridin-2-yl]acetamide] | ~0.005 | > 5 |
| CCn1cc(NC(=O)Cc2ccc(Oc3ncnc4cc(OC)c(OC)cc34)cn2)cn1 [N-(1-ethyl-1H-pyrazol-4-yl)-2-[5-(6,7-dimethoxyquinazolin-4-yloxy)pyridin-2-yl]acetamide] | ~0.025 | – |
| COc1cc2ncnc(Oc3ccc(CC(=O)Nc4cc(C)on4)nc3)c2cc1OC [N-(5-methylisoxazol-3-yl)-2-[5-(6,7-dimethoxyquinazolin-4-yloxy)pyridin-2-yl]acetamide] | ~0.025 | ~0.3 |
